Results as given in patent US6613747B2, “6-O-carbamoyl ketolide antibacterials” (Ortho-McNeil Pharmaceutical, Inc., priority 2000, dated 2003).
≈ marks a conversion by molar mass, not a printed value. Like-named read-outs stand apart in the source and are kept apart here.

Tests used:
Experiment in all cases: MIC, microdilution broth method (NCCLS)
Type in all cases: cell-based
E. coli OC2605 = conditions: A: E. coli OC2605, 35° C., 16-20 hours
Protocol: (§1) Minimal inhibitory concentration (MIC) has been an indicator of in vitro antibacterial activity widely used in the art. The in vitro antimicrobial activity of the compounds was determined by the microdilution broth method following the test method from the National Committee for Clinical Laboratory Standards (NCCLS). This method is described in the NCCLS Document M7-A4, Vol. 17, No. 2, “Methods for Dilution Antimicrobial Susceptibility Test for Bacteria that Grow Aerobically—Fourth Edition”, which is incorporated herein by reference.
(§2) In this method two-fold serial dilutions of drug in cation adjusted Mueller-Hinton broth are added to wells in microdilution trays. The test organisms are prepared by adjusting the turbidity of actively growing broth cultures so that the final concentration of test organism after it is added to the wells is approximately 5×10^4 CFU/well.
(§3) Following inoculation of the microdilution trays, the trays are incubated at 35° C. for 16-20 hours and then read. […] The amount of growth in the wells containing the test compound is compared with the amount of growth in the growth-control wells (no test compound) used in each tray. As set forth in Table 1, compounds of the present invention were tested against a variety of Gram positive and Gram negative pathogenic bacteria resulting in a range of activities depending on the organism tested.

E. faecalis ATCC29212 = conditions: C: E. faecalis ATCC29212, 35° C., 16-20 hours
Protocol: as §1, §2, §3

S. aureus ATCC29213 = conditions: B: S. aureus ATCC29213, 35° C., 16-20 hours
Protocol: as §1, §2, §3

S. pneumoniae ATCC49619 = conditions: D: S. pneumoniae ATCC49619, 35° C., 16-20 hours
Protocol: as §1, §2, §3

H. influenzae ATCC49247 = conditions: E: H. influenzae ATCC49247, 35° C., 16-20 hours
Protocol: as §1, §2, §3

With `CC[C@H]1OC(=O)[C@H](C)C(=O)[C@H](C)[C@@H](O[C@@H]2O[C@H](C)C[C@H](N(C)C)[C@H]2O)[C@](C)(OC(=O)NC/C=C/c2cccc(-c3ccccn3)c2)C[C@@H](C)C(=O)[C@H](C)[C@H]2NC(=O)O[C@@]21C` [Compound 36] the MIC (E. coli OC2605) was 8 µg/mL (≈ 9.58 µM), the MIC (E. faecalis ATCC29212) was 0.03 µg/mL (≈ 0.0359 µM) and the MIC (S. aureus ATCC29213) was 0.12 µg/mL (≈ 0.144 µM). The MIC (S. pneumoniae ATCC49619) was “≦0.015 μg/mL”.

`CC[C@H]1OC(=O)[C@H](C)C(=O)[C@H](C)[C@@H](O[C@@H]2O[C@H](C)C[C@H](N(C)C)[C@H]2O)[C@](C)(OC(=O)NCc2cccc(-c3ccccn3)c2)C[C@@H](C)C(=O)[C@H](C)[C@H]2NC(=O)O[C@@]21C` [Compound 37] was tested, and the MIC (E. coli OC2605) was 16 µg/mL (≈ 19.8 µM), the MIC (E. faecalis ATCC29212) was 0.12 µg/mL (≈ 0.148 µM) and the MIC (S. aureus ATCC29213) was 0.5 µg/mL (≈ 0.618 µM). It also gave an MIC (S. pneumoniae ATCC49619) of 0.03 µg/mL (≈ 0.0371 µM).

`CC[C@H]1OC(=O)[C@H](C)C(=O)[C@H](C)[C@@H](O[C@@H]2O[C@H](C)C[C@H](N(C)C)[C@H]2O)[C@](C)(OC(=O)NC/C=C/c2ccc3ncccc3c2)C[C@@H](C)C(=O)[C@H](C)[C@H]2NC(=O)O[C@@]21C` [Compound 38] gave an MIC (E. coli OC2605) of 8 µg/mL (≈ 9.89 µM), an MIC (E. faecalis ATCC29212) of 0.03 µg/mL (≈ 0.0371 µM) and an MIC (S. aureus ATCC29213) of 0.12 µg/mL (≈ 0.148 µM). The MIC (S. pneumoniae ATCC49619) was “≦0.015 μg/mL”.

`CC[C@H]1OC(=O)[C@H](C)C(=O)[C@H](C)[C@@H](O[C@@H]2O[C@H](C)C[C@H](N(C)C)[C@H]2O)[C@](C)(OC(=O)NC/C=C/c2ccc(-n3cnnc3)cc2)C[C@@H](C)C(=O)[C@H](C)[C@H]2NC(=O)O[C@@]21C` [Compound 40] was tested, and the MIC (E. coli OC2605) was 16 µg/mL (≈ 19.4 µM), the MIC (E. faecalis ATCC29212) was 0.5 µg/mL (≈ 0.606 µM) and the MIC (S. aureus ATCC29213) was 1 µg/mL (≈ 1.21 µM). It also gave an MIC (S. pneumoniae ATCC49619) of 0.12 µg/mL (≈ 0.145 µM).

With `CC[C@H]1OC(=O)[C@H](C)C(=O)[C@H](C)[C@@H](O[C@@H]2O[C@H](C)C[C@H](N(C)C)[C@H]2O)[C@](C)(OC(=O)NC/C=C/c2cccc3cccnc23)C[C@@H](C)C(=O)[C@H](C)[C@H]2NC(=O)O[C@@]21C` [Compound 46] the MIC (E. coli OC2605) was 16 µg/mL (≈ 19.8 µM), the MIC (E. faecalis ATCC29212) was 0.06 µg/mL (≈ 0.0742 µM) and the MIC (H. influenzae ATCC49247) was 2 µg/mL (≈ 2.47 µM). The MIC (S. aureus ATCC29213) was 0.25 µg/mL (≈ 0.309 µM).

For `CC[C@H]1OC(=O)[C@H](C)C(=O)[C@H](C)[C@@H](O[C@@H]2O[C@H](C)C[C@H](N(C)C)[C@H]2O)[C@](C)(OC(=O)NC/C=C/c2ccc3cccnc3c2)C[C@@H](C)C(=O)[C@H](C)[C@H]2NC(=O)O[C@@]21C` [Compound 47], the MIC (E. coli OC2605) was 16 µg/mL (≈ 19.8 µM), the MIC (E. faecalis ATCC29212) was 0.06 µg/mL (≈ 0.0742 µM) and the MIC (H. influenzae ATCC49247) was 1 µg/mL (≈ 1.24 µM). The MIC (S. aureus ATCC29213) was 0.25 µg/mL (≈ 0.309 µM).

`CC[C@H]1OC(=O)[C@H](C)C(=O)[C@H](C)[C@@H](O[C@@H]2O[C@H](C)C[C@H](N(C)C)[C@H]2O)[C@](C)(OC(=O)NC/C=C/c2cccc(-n3cccn3)n2)C[C@@H](C)C(=O)[C@H](C)[C@H]2NC(=O)O[C@@]21C` [Compound 48] was tested, and the MIC (E. coli OC2605) was greater than 16 µg/mL, the MIC (E. faecalis ATCC29212) was 0.12 µg/mL (≈ 0.145 µM) and the MIC (H. influenzae ATCC49247) was 4 µg/mL (≈ 4.85 µM). The MIC (S. aureus ATCC29213) was 0.5 µg/mL (≈ 0.606 µM).

Compound `CC[C@H]1OC(=O)[C@H](C)[C@@H](O)[C@H](C)[C@@H](O[C@@H]2O[C@H](C)C[C@H](N(C)C)[C@H]2O)[C@](C)(OC(=O)NC/C=C/c2ccc(-c3ncccn3)cc2)C[C@@H](C)C(=O)[C@H](C)[C@H]2NC(=O)O[C@@]21C` [Compound 95] has an MIC (E. coli OC2605; Escherichia coli, read-out: MIC) greater than 16 µg/mL, an MIC (E. faecalis ATCC29212; Enterococcus faecalis, read-out: MIC) of 0.25 µg/mL (≈ 0.298 µM) and an MIC (H. influenzae ATCC49247; Haemophilus influenzae, read-out: MIC) of 2 µg/mL (≈ 2.39 µM). For the same compound, the MIC (S. aureus ATCC29213; Staphylococcus aureus, read-out: MIC) was 1 µg/mL (≈ 1.19 µM).

Compound `CCC1OC(=O)C(C)(F)C(=O)C(C)C(OC2OC(C)CC(N(C)C)C2O)C(C)(OC(=O)NCC=Cc2ccc(-c3cccnn3)cc2)CC(C)C(=O)C(C)C2NC(=O)OC12C` (centres unmarked) [Compound 99] has an MIC (E. coli OC2605) of 8 µg/mL (≈ 9.37 µM), an MIC (E. faecalis ATCC29212) of 0.12 µg/mL (≈ 0.141 µM) and an MIC (H. influenzae ATCC49247) of 1 µg/mL (≈ 1.17 µM). It also gave an MIC (S. aureus ATCC29213) of 0.5 µg/mL (≈ 0.585 µM).

With `CCC1OC(=O)C(C)(F)C(=O)C(C)C(OC2OC(C)CC(N(C)C)C2O)C(C)(OC(=O)NCC=Cc2ccc(-c3ccncn3)cc2)CC(C)C(=O)C(C)C2NC(=O)OC12C` (centres unmarked) [Compound 100] the MIC (E. coli OC2605) was 16 µg/mL (≈ 18.7 µM), the MIC (E. faecalis ATCC29212) was 0.12 µg/mL (≈ 0.141 µM) and the MIC (H. influenzae ATCC49247) was 2 µg/mL (≈ 2.34 µM). The MIC (S. aureus ATCC29213) was 0.5 µg/mL (≈ 0.585 µM).

For `CC[C@H]1OC(=O)[C@H](C)C(=O)[C@H](C)[C@@H](O[C@@H]2O[C@H](C)C[C@H](N(C)C)[C@H]2O)[C@](C)(OC(=O)NC2CC(c3ccc(-c4ncccn4)cc3)C2)C[C@@H](C)C(=O)[C@H](C)[C@H]2NC(=O)O[C@@]21C` (some centres unmarked) [Compound 136], the MIC (E. coli OC2605) was greater than 16 µg/mL, the MIC (E. faecalis ATCC29212) was 4 µg/mL (≈ 4.71 µM) and the MIC (H. influenzae ATCC49247) was greater than 16 µg/mL. For the same compound, the MIC (S. pneumoniae ATCC49619) was 2 µg/mL (≈ 2.35 µM).
